Measurements published in patent US10973896B2, “Treatment or prevention of melanoma using photochemical internalization of a melanoma antigen” (PCI Biotech AS, priority 2014, dated 2021).

Legend:
bone marrow DCs = experiment: Fluorescence microscopy of cytosolic antigen release in dendritic cells; format: cell-based, C57BL/6 mice; settings: incubated with TPCS2a and Alexa488-labelled OVA
Protocol: Cells (J774.1 (ATCC no. TIB-67 mouse monocyte macrophage cell line) or bone marrow DCs from C57BL/6 mice) were incubated with 0.05 or 1.0 μg/ml TPCS2a and 25 μg/ml OVA-Alexa488 for 18 hours and washed three times in drug-free culture medium prior to incubation for four hours before light activation (3 min LumiSource exposure). The cells were subsequently washed in ice-cold PBS with Ca^2+ and Mg^2+ prior to microscopy. Images of cellular localization and PCI-induced cytosolic release of OVA were obtained by epi-fluorescence microscopy using a Plan-Apochromat 63×/1.40 Oil differential interference contrast (DIC) objective or 40×/0.95 Plan-Apochromat phase contrast (Korr Ph3 M27) objective with a Zeiss Axioimager Z.1 microscope (Carl Zeiss, Oberkochen, Germany). Fluorescence of Alexa488-labelled OVA was obtained by using a 470/40 nm band pass (BP) excitation filter with a beam splitter at 495 nm and a 525/50 nm BP emission filter. TPCS2a fluorescence was obtained by using a 395-440 nm BP excitation filter with a beam splitter at 460 nm, and a 620 nm long pass filter. Micrographs were recorded with a digital AxioCam MRm camera and processed and analysed by use of the Axiovision Software (Carl Zeiss).

[1] = system: SIINFEKL-specific CD8 T cells; experiment: PCI immunisation of OT-I-spiked mice, SIINFEKL pentamer flow cytometry (Example 2); format: in vivo, C57BL/6 mice; settings: TPCS2a at 10, 25, 50, 100 and 250 μg; data not shown
Protocol: One day prior to the immunisation, spleens and lymph nodes were isolated from female OT-1 mice, and erythrocytes were removed by lysis (RBC Lysing Buffer Hybri-Max from Sigma-Aldrich) from the homogenised cell suspensions. The remaining cells were washed in PBS, filtered through 70 micron nylon strainers, and 2×10^6 OT-1 cells were administered by intravenous injection into recipient female C57BLJ6 mice; the adoptive transfer of SIINFEKL-specific CD8 T cells facilitates monitoring of the immune response by flow cytometry. One day or 8 hours later, mice were bled by tail bleeding, and the blood was collected in heparin-containing tubes for analysis of the baseline frequency of OVA-specific CD8 T cells.
(§1) Then, the mice were shaved on the abdominal area, and the vaccines, consisting of OVA or of a mixture of OVA and TPCS2a, were injected intradermally using syringes with 29G needles. The vaccines were kept light protected and used within 60 minutes of preparation. The vaccines were given in two injections of 50 μl each, on the left and right side of the abdominal mid line. OVA was tested at 10 to 100 μg per dose. The TPCS2a dose was 7.5 to 250 μg.
(§2) On day 0, prior to vaccination and on various days thereafter (e.g. day 6, 7, 8, 9, 14, 23, as indicated) mice were bled by tail bleeding and erythrocytes were removed by lysis, before analysis of antigen-specific CD8 T cells by flow cytometry. At the end of the experiment (typically 11, 12, 14 or 23 days), the mice were euthanized and the splenocytes analysed ex vivo. At various time points after the TPCS2a injection (0-48 hours), the mice were anaesthetised by intraperitoneal injection of a mixture of ketamine (25 mg/kg body weight) and xylazin (4 mg/kg) and placed on a light source (for illumination and activation of the photosensitiser TPCS2a). The light dose was 6 minutes, if not otherwise stated. The whole procedure is illustrated in the scheme of FIG. 6A. The illumination of mice using LumiSource™ is imaged in FIG. 6B.
The frequency of OVA-specific CD8 T-cells in blood was monitored by staining the cells with anti-CD8 antibody and H-2K^b/SIINFEKL ProS pentamer (Proimmune, Oxford, UK) for analysis by flow cytometry. The activation status of the cells was further analysed by testing the expression of CD44 and CD69 by flow cytometry. Intracellular staining for IFN-γ was done after overnight stimulation of splenocytes in 24-well plates with the CD8 epitope OVA257-264 (SIINFEKL) at 37 ° C. Brefeldin A was added during the last 4 hours. The cells were then washed and fixed with 4% formaldehyde in PBS for 10 min on ice. Anti-CD16/32 was added to block unspecific binding to Fc receptors. The cells were then permeabilised with 0.1% NP40 in PBS for 3 min and washed before staining with anti-IFN-γ, anti-CD8 and ant-CD44 antibodies (eBioscience or BD Pharmingen). The cells were acquired using FACSCanto (BD Biosciences, San Jose, USA) and analysed using FlowJo 8.5.2 software (Tree Star, Inc., Ashland, Oreg.).

J774 cells = experiment: Live cell fluorescence microscopy of J774 cells; format: cell-based, mouse; settings: for cellular uptake and distribution of Alexa488-labelled OVA: with or without parallel PCI treatment, FIG. 9A
Protocol: Fifty thousand J774.1 cells (ATCC no. TIB-67 mouse monocyte macrophage cell line) were seeded out on no. 1.5 glass coverslips (Glasswarenfabrik Karl Hecht KG, Sondheim, Germany) in 4-well plates overnight. The cells were incubated with 0.05 or 1,0 μg/ml TPCS2a for 18 hours and washed three times in drug-free culture medium prior to incubation with 25 μg/ml OVA-Alexa488 for four hours. Cells were subsequently washed in ice-cold PBS with Ca^2+ and Mg^2+ prior to microscopy. Images of cellular localization and PCI-induced cytosolic release of OVA was obtained by epi-fluorescence microscopy using a Plan-Apochromat 63×/1.40 Oil differential interference contrast (DIC) objective or 40×/0.95 Plan-Apochromat phase contrast (Korr Ph3 M27) objective with a Zeiss Axioimager Z.1 microscope (Carl Zeiss, Oberkochen, Germany). Fluorescence of Alexa488-labelled OVA was obtained by using a 470/40 nm band pass (BP) excitation filter with a beam splitter at 495 nm and a 525/50 nm BP emission filter. TPCS2a fluorescence was obtained by using a 395-440 nm BP excitation filter with a beam splitter at 460 nm, and a 620 nm long pass filter. Micrographs were recorded with a digital AxioCam MRm camera and processed and analysed by use of the Axiovision Software (Carl Zeiss).

[2] = Local reaction at the illuminated injection site (Example 2); format: in vivo, C57BL/6 mice; settings: higher TPCS2a doses; days 1-3 after illumination; data not shown
Protocol: as §1, §2

tetraphenyl chlorin disulfonate [TPCS2a]
localisation of antigen and photosensitiser (bone marrow DCs; before light, FIG. 5A): co-localisation of antigen and photosensitiser in DC endosomes | antigen distribution after light activation (bone marrow DCs; FIG. 5B): release of the antigen into the cytosol could be observed over 15 minutes | OVA-specific immune response with increasing TPCS2a dose [1]: increased the measured OVA-specific immune response | relative localisation of antigen and TPCS2a after light activation (J774 cells; FIG. 9B): co-localised | cellular uptake and distribution of Alexa488-labelled OVA (J774 cells): diffuse green fluorescence | local inflammation after illumination [2]: more local inflammation with transient erythema

Alexa488-labelled OVA: Alexa488-labelled OVA protein for fluorescence microscopy
cellular uptake and distribution of Alexa488-labelled OVA (J774 cells): located close to the cell surface in concise spherical shaped bodies
